Source: PubChem BioAssay AID2060904 (Molecular Pharmacology Branch, DTP, NCI, 2025)

Test system: 349418-098-R-PDC complex spheroid viability
Assay: Anticancer human tumor 349418-098-R-PDC patient-derived lung adenocarcinoma cell line growth inhibition [RAS]
Conditions: for viability, T/C: stronger effect = lower value
Summary of the method: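 Multi-cell-type spheroids: tumor cells plus HUVEC endothelial cells and mesenchymal stem cells. RAS-pathway inhibitors were combined with targeted agents, each dosed in half-log steps down from clinical Cmax, or from 10 microM when Cmax was unknown.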

[1] = curve of first compound, second compound 0.0316 µM
[2] = curve of first compound, second compound 0.1 µM
[3] = curve of first compound, second compound 0.316 µM
[4] = curve of first compound, second compound 1 µM
[5] = second compound 0.0316 µM, first compound 0.000949 µM
[6] = second compound 0.0316 µM, first compound 0.003 µM
[7] = second compound 0.0316 µM, first compound 0.00949 µM
[8] = second compound 0.0316 µM, first compound 0.03 µM
[9] = second compound 0.0316 µM, first compound 0.0949 µM
[10] = second compound 0.0316 µM, first compound 0.3 µM
[11] = second compound 0.1 µM, first compound 0.000949 µM
[12] = second compound 0.1 µM, first compound 0.003 µM
[13] = second compound 0.1 µM, first compound 0.00949 µM
[14] = second compound 0.1 µM, first compound 0.03 µM
[15] = second compound 0.1 µM, first compound 0.0949 µM
[16] = second compound 0.1 µM, first compound 0.3 µM
[17] = second compound 0.316 µM, first compound 0.000949 µM
[18] = second compound 0.316 µM, first compound 0.003 µM
[19] = second compound 0.316 µM, first compound 0.00949 µM
[20] = second compound 0.316 µM, first compound 0.03 µM
[21] = second compound 0.316 µM, first compound 0.0949 µM
[22] = second compound 0.316 µM, first compound 0.3 µM
[23] = second compound 1 µM, first compound 0.000949 µM
[24] = second compound 1 µM, first compound 0.003 µM
[25] = second compound 1 µM, first compound 0.00949 µM
[26] = second compound 1 µM, first compound 0.03 µM
[27] = second compound 1 µM, first compound 0.0949 µM
[28] = second compound 1 µM, first compound 0.3 µM
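Note: spheroids exposed to compound for seven days before viability readout.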

CCc1c2c(nc3ccc(O)cc13)-c1cc3c(c(=O)n1C2)COC(=O)[C@]3(O)CC + C#Cc1c(F)ccc2cc(O)cc(-c3ncc4c(N5CC6CCC(C5)N6)nc(OCC56CCCN5CC(F)C6)nc4c3F)c12
IC50 [1]: 1.41 nM
IC50 [2]: 1.76 nM
IC50 [3]: 1.76 nM
IC50 [4]: 1.96 nM
IC50 (curve of first compound, second compound 3.16 µM): 1.75 nM
IC50 (curve of first compound, second compound 10 µM): 1.18 nM
viability, T/C [5]: 58.9%
viability, T/C [6]: 33.1%
viability, T/C [7]: 10.8%
viability, T/C [8]: 4.93%
viability, T/C [9]: 3.89%
viability, T/C [10]: 2.53%
viability, T/C [11]: 74.7%
viability, T/C [12]: 28.7%
viability, T/C [13]: 10.6%
viability, T/C [14]: 5.19%
viability, T/C [15]: 4.46%
viability, T/C [16]: 2.82%
viability, T/C [17]: 70.9%
viability, T/C [18]: 32.1%
viability, T/C [19]: 8.77%
viability, T/C [20]: 4.98%
viability, T/C [21]: 3.85%
viability, T/C [22]: 2.45%
viability, T/C [23]: 81%
viability, T/C [24]: 32%
viability, T/C [25]: 9.89%
viability, T/C [26]: 6.27%
viability, T/C [27]: 4.67%
viability, T/C [28]: 2.58%
viability, T/C (second compound 3.16 µM, first compound 0.000949 µM): 65.8%
viability, T/C (second compound 3.16 µM, first compound 0.003 µM): 36.2%
viability, T/C (second compound 3.16 µM, first compound 0.00949 µM): 10.1%
viability, T/C (second compound 3.16 µM, first compound 0.03 µM): 5.33%
viability, T/C (second compound 3.16 µM, first compound 0.0949 µM): 3.62%
viability, T/C (second compound 3.16 µM, first compound 0.3 µM): 2.21%
viability, T/C (second compound 10 µM, first compound 0.000949 µM): 57.9%
viability, T/C (second compound 10 µM, first compound 0.003 µM): 17.1%
viability, T/C (second compound 10 µM, first compound 0.00949 µM): 4.95%
viability, T/C (second compound 10 µM, first compound 0.03 µM): 2.94%
viability, T/C (second compound 10 µM, first compound 0.0949 µM): 1.84%
viability, T/C (second compound 10 µM, first compound 0.3 µM): 0.77%

CC(=O)OC12COC1CC(O)C1(C)C(=O)C(O)C3=C(C)C(OC(=O)C(O)C(NC(=O)OC(C)(C)C)c4ccccc4)CC(O)(C(OC(=O)c4ccccc4)C21)C3(C)C (stereo not drawn)
viability, T/C (compound 0.0316 µM): 14.5% [middle of 4 runs]
viability, T/C (compound 0.1 µM): 14.6% [middle of 4 runs]
viability, T/C (compound 0.316 µM): 17.6% [middle of 4 runs]
viability, T/C (compound 1 µM): 15.2% [middle of 4 runs]
viability, T/C (compound 3.16 µM): 24.6% [middle of 4 runs]
viability, T/C (compound 10 µM): 25.8% [middle of 4 runs]
IC50 (curve of compound): < 31.6 nM

CC(Nc1ccc2c(c1)OCCn1cc(N3C(=O)OCC3C(F)F)nc1-2)C(N)=O (stereo not drawn) + CCn1c(-c2cc(N3CCN(C)CC3)cnc2C(C)OC)c2c3cc(ccc31)-c1csc(n1)CC(NC(=O)C1CC1C)C(=O)N1CCCC(N1)C(=O)OCC(C)(C)C2
IC50 (curve of first compound, second compound 0.000949 µM): 127 nM
IC50 (curve of first compound, second compound 0.003 µM): 93.8 nM
IC50 (curve of first compound, second compound 0.00949 µM): 158 nM
IC50 (curve of first compound, second compound 0.03 µM): 91.6 nM
IC50 (curve of first compound, second compound 0.0949 µM): 145 nM
IC50 (curve of first compound, second compound 0.3 µM): 169 nM
viability, T/C (second compound 0.000949 µM, first compound 0.0316 µM): 75.9%
viability, T/C (second compound 0.000949 µM, first compound 0.1 µM): 56.3%
viability, T/C (second compound 0.000949 µM, first compound 0.316 µM): 25.9%
viability, T/C (second compound 0.000949 µM, first compound 1 µM): 19.5%
viability, T/C (second compound 0.000949 µM, first compound 3.16 µM): 25.7%
viability, T/C (second compound 0.000949 µM, first compound 10 µM): 14.8%
viability, T/C (second compound 0.003 µM, first compound 0.0316 µM): 78.6%
viability, T/C (second compound 0.003 µM, first compound 0.1 µM): 49.9%
viability, T/C (second compound 0.003 µM, first compound 0.316 µM): 25.1%
viability, T/C (second compound 0.003 µM, first compound 1 µM): 25.5%
viability, T/C (second compound 0.003 µM, first compound 3.16 µM): 15.4%
viability, T/C (second compound 0.003 µM, first compound 10 µM): 13.2%
viability, T/C (second compound 0.00949 µM, first compound 0.0316 µM): 85.8%
viability, T/C (second compound 0.00949 µM, first compound 0.1 µM): 57.5%
viability, T/C (second compound 0.00949 µM, first compound 0.316 µM): 39.6%
viability, T/C (second compound 0.00949 µM, first compound 1 µM): 21.4%
viability, T/C (second compound 0.00949 µM, first compound 3.16 µM): 20.3%
viability, T/C (second compound 0.00949 µM, first compound 10 µM): 14%
viability, T/C (second compound 0.03 µM, first compound 0.0316 µM): 76.4%
viability, T/C (second compound 0.03 µM, first compound 0.1 µM): 44.7%
viability, T/C (second compound 0.03 µM, first compound 0.316 µM): 36.8%
viability, T/C (second compound 0.03 µM, first compound 1 µM): 21.9%
viability, T/C (second compound 0.03 µM, first compound 3.16 µM): 16.7%
viability, T/C (second compound 0.03 µM, first compound 10 µM): 17.3%
viability, T/C (second compound 0.0949 µM, first compound 0.0316 µM): 77.8%
viability, T/C (second compound 0.0949 µM, first compound 0.1 µM): 59.2%
viability, T/C (second compound 0.0949 µM, first compound 0.316 µM): 30.7%
viability, T/C (second compound 0.0949 µM, first compound 1 µM): 21.5%
viability, T/C (second compound 0.0949 µM, first compound 3.16 µM): 25.5%
viability, T/C (second compound 0.0949 µM, first compound 10 µM): 15.9%
viability, T/C (second compound 0.3 µM, first compound 0.0316 µM): 89.2%
viability, T/C (second compound 0.3 µM, first compound 0.1 µM): 57.2%
viability, T/C (second compound 0.3 µM, first compound 0.316 µM): 42%
viability, T/C (second compound 0.3 µM, first compound 1 µM): 26.8%
viability, T/C (second compound 0.3 µM, first compound 3.16 µM): 26.6%
viability, T/C (second compound 0.3 µM, first compound 10 µM): 18.8%

CC1(C)CCC(Nc2ncc(C(F)(F)F)c(-c3c[nH]c4c(P(C)(C)=O)c(C#N)ccc34)n2)CN1 (stereo not drawn) + C=CC(=O)N1CCN(c2nc(OCC3CCCN3C)nc3c(F)c(-c4nc(N)cc(C)c4C(F)(F)F)c(Cl)cc23)C(C)C1
IC50 (curve of first compound, second compound 0.00316 µM): 1.25 nM
IC50 (curve of first compound, second compound 0.01 µM): 1.19 nM
IC50 [1]: < 0.949 nM
IC50 [2]: 1.07 nM
IC50 [3]: 1.16 nM
IC50 [4]: 1.27 nM
viability, T/C (second compound 0.00316 µM, first compound 0.000949 µM): 57.1%
viability, T/C (second compound 0.00316 µM, first compound 0.003 µM): 27.2%
viability, T/C (second compound 0.00316 µM, first compound 0.00949 µM): 15.7%
viability, T/C (second compound 0.00316 µM, first compound 0.03 µM): 9.16%
viability, T/C (second compound 0.00316 µM, first compound 0.0949 µM): 9.76%
viability, T/C (second compound 0.00316 µM, first compound 0.3 µM): 8.19%
viability, T/C (second compound 0.01 µM, first compound 0.000949 µM): 56.4%
viability, T/C (second compound 0.01 µM, first compound 0.003 µM): 24.6%
viability, T/C (second compound 0.01 µM, first compound 0.00949 µM): 16.1%
viability, T/C (second compound 0.01 µM, first compound 0.03 µM): 9.39%
viability, T/C (second compound 0.01 µM, first compound 0.0949 µM): 12.1%
viability, T/C (second compound 0.01 µM, first compound 0.3 µM): 7.38%
viability, T/C [5]: 44%
viability, T/C [6]: 23.3%
viability, T/C [7]: 18.3%
viability, T/C [8]: 11.6%
viability, T/C [9]: 11.7%
viability, T/C [10]: 8.91%
viability, T/C [11]: 53.1%
viability, T/C [12]: 25.3%
viability, T/C [13]: 12.4%
viability, T/C [14]: 14.6%
viability, T/C [15]: 13.2%
viability, T/C [16]: 8.82%
viability, T/C [17]: 54.9%
viability, T/C [18]: 29.1%
viability, T/C [19]: 14.6%
viability, T/C [20]: 12.8%
viability, T/C [21]: 13.3%
viability, T/C [22]: 9.31%
viability, T/C [23]: 58.9%
viability, T/C [24]: 24.2%
viability, T/C [25]: 15.7%
viability, T/C [26]: 14.2%
viability, T/C [27]: 10.3%
viability, T/C [28]: 7.97%

CC(Nc1ccc2c(c1)OCCn1cc(N3C(=O)OCC3C(F)F)nc1-2)C(N)=O (stereo not drawn)
viability, T/C (compound 0.0316 µM): 75.9% [middle of 4 runs]
viability, T/C (compound 0.1 µM): 49.6% [middle of 4 runs]
viability, T/C (compound 0.316 µM): 32% [middle of 4 runs]
viability, T/C (compound 1 µM): 21.9% [middle of 4 runs]
viability, T/C (compound 10 µM): 14.1% [middle of 4 runs]
